Test results reported in patent US20250034182A1, “PHOSPHOLIPID COMPOUNDS AND METHODS OF MAKING AND USING THE SAME” (priority 2021, published 2025).

Experiments:
Assay type in all cases: cell-based
[1] = RSV HEP2-CC50-384-V2 (per Ex. V); settings: human
[2] = test system: Respiratory syncytial virus recombinant with luciferase (RSV-Luc5) in NHBE cells; assay: NHBE RSV-Luc5 384-well assay (EC50 RSVFLUC NHBE-384, Example U); settings: human respiratory syncytial virus, 72 h, read-out: RSV FLuc NHBE 384 EC50 (v2) (nM) (per Ex. U)
Protocol: Normal Human Bronchial Epithelial (NHBE) cells were purchased from Lonza (Walkersville, MD Cat #CC2540) and maintained in BEGM Bronchial Epithelial Cell (Growth Medium BulletKit (Lonza CC-3170).
Cells were thawed, expanded, and were used for experiments at passage 2. Respiratory syncytial virus recombinant with luciferase (RSV-Luc5) (≥1×10^7 Infectious Units/ml (IU/ml) determined by TCID50) was purchased from Microbiologics (Saint Cloud, MN). Viral replication was determined in NHBE cells in the following manner.
Compounds are prepared in 100% DMSO in 384-well polypropylene plates (Greiner, Monroe, NC, Cat #784201) with 8 compounds per plate in grouped replicates of 4 at 10 serially diluted concentrations (1:3). The serially diluted compounds were transferred to low dead volume Echo plates (Labcyte, Sunnyvale, CA, Cat #LP-0200).
The test compounds were spotted to 384-well assay plates (Greiner, Monroe, NC, Cat #781091) at 200 nL per well. NHBE cells were harvested and suspended in BEGM Bronchial Epithelial Cell Growth Medium BulletKit and seeded to the pre-spotted assay plates at 5,000 cells per well in 30 μL. RSV-Luc5 virus was diluted in BEGM Bronchial Epithelial Cell Growth Medium BulletKit at 500,000 Infectious Units (IU) per mL and 10 μL per well was added to the assay plates containing cells and compounds, for an MOI of 1. The assay plates were incubated for 3 days at 37° C. and 5% CO2. At the end of incubation, One-Glo reagent (Promega, Madison, WI, Cat #E6120) was prepared. The assay plates and One-Glo reagent were equilibrated to room temperature for at least 15 minutes. 40 μL per well of One-Glo reagent was added and the plates were incubated at room temperature for 15 minutes before reading the luminescence signal on an EnVision multimode plate reader (Perkin Elmer, Waltham, MA). Remdesivir was used as positive control and DMSO was used as negative control. Values were normalized to the positive and negative controls (as 0% and 100% replication, respectively) and data was fitted using non-linear regression analysis by Gilead's dose response tool. The EC50 value for each compound was defined as the concentration reducing the viral replication by 50%.

[3] = test system: dengue virus type 2 in Huh7 hepatoblastoma cells; assay: Dengue Virus-2 Huh-7 EC50 (Example W); settings: MOI of 0.07, CPE, neutral red dye, read-out: Dengue Virus-2 Huh-7 EC50 (nM) (per Ex. W)
Protocol: Huh7 hepatoblastoma cells were seeded onto 96-well plates and incubated at 37° C. with 5% CO2 overnight. The plates were seeded at a cell concentration that will yield >70% confluent monolayers in each well after overnight incubation. Eight 3-fold serial dilutions of compounds were diluted in test media (MEM supplemented with 2% FBS and 50 μg/mL gentamicin). The highest test compound concentration was 50 μg/mL. 100 μL of each concentration was added to 5 test wells on the 96-well plate. Of these 5 test wells, 3 wells of each dilution were infected with dengue virus type 2, diluted in test media (approximately 2000 CCID50 per well for an MOI of 0.07). Test medium (100 μL) with no virus was added to 2 wells to represent the uninfected cytotoxicity controls. Six additional infected wells received 100 μL media alone as untreated virus controls. Further, 100 μL of media alone was added to 6 uninfected wells to serve as uninfected, untreated controls. Cultures were incubated at 37° C.+5% CO2 until >80% CPE is observed. After cytopathic effect (CPE) is observed microscopically, 0.011% neutral red dye was added for approximately 2 hours. The neutral red dye was removed and wells were rinsed once with PBS to remove residual, unincorporated dye. A 50:50 Sorensen citrate buffer/ethanol solution was added and incubated at room temperature for >30 minutes with agitation, followed by measurement of neutral red dye using a spectrophotometer at 540 nm. The resulting optical density measurement was converted to percent signal of the infected, untreated cell control normalizing to virus controls. EC50 and CC50 values were determined by linear regression analysis.

Structure (SMILES)	CC50 at 3 days [1] [µM]	EC50 [2] [nM]	EC50 [3] [nM]
CCCCCCCCCCCCCCCCOC[C@@H](COP(=O)(O)OC[C@@]1(C#N)O[C@@H](c2ccc3c(N)ncnn23)[C@H](O)[C@@H]1O)OCc1cc(F)cc(C#N)c1 [Compound 88, ((2R,3S,4R,5S)-5-(4-aminopyrrolo[2,1-f][1,2,4]triazin-7-yl)-2-cyano-3,4-dihydroxytetrahydrofuran-2-yl)methyl ((S)-2-((3-cyano-5-fluorobenzyl)oxy)-3-(hexadecyloxy)propyl) hydrogen phosphate]	36.6	38	–
CCCCCCCCCCCCCCCCC[C@H](COP(=O)(O)OC[C@@]1(C#N)O[C@@H](c2ccc3c(N)ncnn23)[C@H](O)[C@@H]1O)OCc1cc(Cl)cc(C#N)c1 [Compound 76, ((2R,3S,4R)-5-(4-aminopyrrolo[2,1-f][1,2,4]triazin-7-yl)-2-cyano-3,4-dihydroxytetrahydrofuran-2-yl)methyl ((R)-2-((3-chloro-5-cyanobenzyl)oxy)nonadecyl) hydrogen phosphate]	33.7	113	–
CCCCCCCCCCCCCCCCCCC[C@H](COP(=O)(O)OC[C@@]1(C#N)O[C@@H](c2ccc3c(N)ncnn23)[C@H](O)[C@@H]1O)Oc1ccc(C#N)c(OC(C)C)c1 [Compound 38, ((2R,3S,4R,5S)-5-(4-aminopyrrolo[2,1-f][1,2,4]triazin-7-yl)-2-cyano-3,4-dihydroxytetrahydrofuran-2-yl)methyl ((R)-2-(4-cyano-3-isopropoxyphenoxy)henicosyl) hydrogen phosphate]	35.3	25	2900
CCCCCCCCCCCCCCOC[C@H](COP(=O)(O)OC[C@@]1(C#N)O[C@@H](c2ccc3c(N)ncnn23)[C@H](O)[C@@H]1O)OCc1ccc(C#N)cc1F [Compound 75, ((2R,3S,4R,5S)-5-(4-aminopyrrolo[2,1-f][1,2,4]triazin-7-yl)-2-cyano-3,4-dihydroxytetrahydrofuran-2-yl)methyl ((R)-2-((4-cyano-2-fluorobenzyl)oxy)-3-(tetradecyloxy)propyl) hydrogen phosphate]	> 48.5	12	23000
CCCCCCCCCCCCCCCCCCC[C@H](COP(=O)(O)OC[C@@]1(C#N)O[C@@H](c2ccc3c(N)ncnn23)[C@H](O)[C@@H]1O)OCc1cc(F)cc(C#N)c1 [Compound 25, ((2R,3S,4R,5S)-5-(4-aminopyrrolo[2,1-f][1,2,4]triazin-7-yl)-2-cyano-3,4-dihydroxytetrahydrofuran-2-yl)methyl ((R)-2-((3-cyano-5-fluorobenzyl)oxy)henicosyl) hydrogen phosphate]	> 50	169	9200
CCCCCCCCCCCCCCCCCCCC[C@H](COP(=O)(O)OC[C@@]1(C#N)O[C@@H](c2ccc3c(N)ncnn23)[C@H](O)[C@@H]1O)OCc1cc(F)cc(C#N)c1 [Compound 34, ((2R,3S,4R)-5-(4-aminopyrrolo[2,1-f][1,2,4]triazin-7-yl)-2-cyano-3,4-dihydroxytetrahydrofuran-2-yl)methyl ((R)-2-((3-cyano-5-fluorobenzyl)oxy)docosyl) hydrogen phosphate]	> 43.2	272	15000
CCCCCCCCCCCCCCCCCCC[C@H](COP(=O)(O)OC[C@@]1(C#N)O[C@@H](c2ccc3c(N)ncnn23)[C@H](O)[C@@H]1O)OCc1ccc(C#N)c(OC(C)C)c1 [Compound 28, ((2R,3S,4R,5S)-5-(4-aminopyrrolo[2,1-f][1,2,4]triazin-7-yl)-2-cyano-3,4-dihydroxytetrahydrofuran-2-yl)methyl ((R)-2-((4-cyano-3-isopropoxybenzyl)oxy)henicosyl) hydrogen phosphate]	30.6	46	9500
CCCCCCCCCCCCCCCCCC[C@H](COP(=O)(O)OC[C@@]1(C#N)O[C@@H](c2ccc3c(N)ncnn23)[C@H](O)[C@@H]1O)OCc1cc(F)cc(C#N)c1 [Compound 84, ((2R,3S,4R,5S)-5-(4-aminopyrrolo[2,1-f][1,2,4]triazin-7-yl)-2-cyano-3,4-dihydroxytetrahydrofuran-2-yl)methyl ((R)-2-((3-cyano-5-fluorobenzyl)oxy)icosyl) hydrogen phosphate]	> 50	9	–
CCCCCCCCCCCCCCCCCCOC[C@H](COP(=O)(O)OC[C@@]1(C#N)O[C@@H](c2ccc3c(N)ncnn23)[C@H](O)[C@@H]1O)Oc1ccc(C#N)c(OC(C)C)c1 [Compound 23, ((2R,3S,4R,5S)-5-(4-aminopyrrolo[2,1-f][1,2,4]triazin-7-yl)-2-cyano-3,4-dihydroxytetrahydrofuran-2-yl)methyl ((R)-2-(4-cyano-3-isopropoxyphenoxy)-3-(octadecyloxy)propyl) hydrogen phosphate]	> 42	4	8600
CCCCCCCCCCCCCCCCCCOC[C@H](COP(=O)(O)OC[C@@]1(C#N)O[C@@H](c2ccc3c(N)ncnn23)[C@H](O)[C@@H]1O)OCc1ccc(C#N)c(-n2cncn2)c1 [Compound 16, ((2R,3S,4R,5S)-5-(4-aminopyrrolo[2,1-f][1,2,4]triazin-7-yl)-2-cyano-3,4-dihydroxytetrahydrofuran-2-yl)methyl ((R)-2-((4-cyano-3-(1H-1,2,4-triazol-1-yl)benzyl)oxy)-3-(octadecyloxy)propyl) hydrogen phosphate]	> 41.5	< 3	3900
CCCCCCCCCCCCCCCCCCC[C@H](COP(=O)(O)OC[C@@]1(C#N)O[C@@H](c2ccc3c(N)ncnn23)[C@H](O)[C@@H]1O)Oc1cc(OC)c(C#N)c(OC)c1 [Compound 39, ((2R,3S,4R,5S)-5-(4-aminopyrrolo[2,1-f][1,2,4]triazin-7-yl)-2-cyano-3,4-dihydroxytetrahydrofuran-2-yl)methyl ((R)-2-(4-cyano-3,5-dimethoxyphenoxy)henicosyl) hydrogen phosphate]	> 41.4	51	9100
CCCCCCCCCCCCCCCCCCOC[C@H](COP(=O)(O)OC[C@@]1(C#N)O[C@@H](c2ccc3c(N)ncnn23)[C@H](O)[C@@H]1O)OCc1ccc(C#N)nc1 [Compound 19, ((2R,3S,4R,5S)-5-(4-aminopyrrolo[2,1-f][1,2,4]triazin-7-yl)-2-cyano-3,4-dihydroxytetrahydrofuran-2-yl)methyl ((R)-2-((6-cyanopyridin-3-yl)methoxy)-3-(octadecyloxy)propyl) hydrogen phosphate]	46.4	–	6600
CCCCCCCCCCCCCCCCCCOCC(COc1cc(F)cc(C#N)c1)COP(=O)(O)OC[C@@]1(C#N)O[C@@H](c2ccc3c(N)ncnn23)[C@H](O)[C@@H]1O (stereo partly drawn) [Compound 43, ((2R,3S,4R,5S)-5-(4-aminopyrrolo[2,1-f][1,2,4]triazin-7-yl)-2-cyano-3,4-dihydroxytetrahydrofuran-2-yl)methyl (3-(3-cyano-5-fluorophenoxy)-2-((octadecyloxy)methyl)propyl) hydrogen phosphate]	> 30.3	98	9700
CCCCCCCCCCCCCCOC[C@H](COP(=O)(O)OC[C@@]1(C#N)O[C@@H](c2ccc3c(N)ncnn23)[C@H](O)[C@@H]1O)Oc1cc(C#N)ccn1 [Compound 69, ((2R,3S,4R)-5-(4-aminopyrrolo[2,1-f][1,2,4]triazin-7-yl)-2-cyano-3,4-dihydroxytetrahydrofuran-2-yl)methyl ((R)-2-((4-cyanopyridin-2-yl)oxy)-3-(tetradecyloxy)propyl) hydrogen phosphate]	> 50	32	–
